This note sets out measurements from patent US8524917B2, “6-substituted indole-3-carboxylic acid amide compounds having sphingosine-1-phosphate (S1P) receptor antagonist biological activity” (Allergan, Inc., priority 2007, dated 2013).

The assay concerns the target human S1P3 receptor (Homo sapiens (Human), UniProt Q99500). The assay can be described thus: Activation or block of activation of human S1P3 receptor, Ca+2 FLIPR assay. Format: cell-based. As to the method: Compounds were assessed for their ability to activate or block activation of the human S1P3 receptor in T24 cells stably expressing the human S1P3 receptor. Ten thousand cells/well were plated into 384-well poly-D-lysine coated plates one day prior to use. The growth media for the S1P3 receptor expressing cell line was McCoy's 5A medium supplemented with 10% charcoal-treated fetal bovine serum (FBS), 1% antibiotic-antimycotic and 400 μg/ml geneticin. On the day of the experiment, the cells were washed twice with Hank's Balanced Salt Solution supplemented with 20 mM HEPES (HBSS/Hepes buffer). […] Extracellular dye was removed by washing the cell plates four times prior to placing the plates in the FLIPR (Fluorometric Imaging Plate Reader, Molecular Devices). Ligands were diluted in HBSS/Hepes buffer and prepared in 384-well microplates. The positive control, Sphingosine-1-Phosphate (S1P), was diluted in HBSS/Hepes buffer with 4 mg/ml fatty acid free bovine serum albumin. The FLIPR transferred 12.5 μl from the ligand microplate to the cell plate and took fluorescent measurements for 75 seconds, taking readings every second, and then for 2.5 minutes, taking readings every 10 seconds. […] IC50 values were determined through a […] analysis using the Levenburg Marquardt algorithm.

Where [1] appears, read: T24 cells stably expressing the human S1P3 receptor, FLIPR Ca+2 response, 0.61 nM to 10,000 nM, read-out: S1P3 IC50.
Where [2] appears, read: T24 cells stably expressing the human S1P3 receptor, value in brackets.

Molecules are shown by their SMILES. Where two headings read alike, the source gives them in different places.

By IC50 is commonly meant the concentration at which inhibition is half-maximal.

Sequence of human S1P3 receptor (Q99500 whole entry): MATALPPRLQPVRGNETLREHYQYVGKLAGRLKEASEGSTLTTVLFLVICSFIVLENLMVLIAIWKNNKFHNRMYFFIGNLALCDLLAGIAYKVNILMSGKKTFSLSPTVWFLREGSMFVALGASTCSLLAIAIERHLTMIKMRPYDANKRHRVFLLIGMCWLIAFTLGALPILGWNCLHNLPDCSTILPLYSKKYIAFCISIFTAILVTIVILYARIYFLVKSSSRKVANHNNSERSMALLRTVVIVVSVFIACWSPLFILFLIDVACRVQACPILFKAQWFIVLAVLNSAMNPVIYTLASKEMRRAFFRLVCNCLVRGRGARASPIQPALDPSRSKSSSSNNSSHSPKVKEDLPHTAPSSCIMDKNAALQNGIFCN

Take `CC(C)Oc1ccc2c(C(=O)NCc3ccc(F)c(F)c3)c(C3=NCCO3)n(Cc3ccccn3)c2c1` [Compound 104, N-(3,4-Difluorobenzyl)-2-(4,5-dihydrooxazol-2-yl)-6-isopropoxy-1-(pyridin-2-ylmethyl)-1H-indole-3-carboxamide]: the IC50 under setting [1] amounted to 3900 nM. Further, the “S1P3 (% inh)” value under setting [2] amounted to 50%.
For `CCOC(=O)c1ccc2c(C(=O)NCc3ccc(F)cc3)c(C(C)C)n(Cc3ccccc3)c2c1`, in that order: 43 nM and 99%.
`CC(C)c1c(C(=O)NCc2cncc(F)c2)c2ccc(OC3CCCC3)cc2n1Cc1ccccn1` [Compound 148, 6-(Cyclopentyloxy)-N-((5-fluoropyridin-3-yl)methyl)-2-isopropyl-1-(pyridin-2-ylmethyl)-1H-indole-3-carboxamide]: the “S1P3 (% inh)” value is reported as 13 nM (100) %. In addition, where the note is “read-out: S1P3 IC50”, the IC50 stood at 13 nM.
`CC(C)c1c(C(=O)NCc2ccc(F)cc2)c2ccc(C3=N[C@@H](C)CO3)cc2n1Cc1ccccn1` [Compound 86, (S)—N-(4-Fluorobenzyl)-2-isopropyl-6-(4-methyl-4,5-dihydrooxazol-2-yl)-1-(pyridin-2-ylmethyl)-1H-indole-3-carboxamide]: the IC50 under setting [1] turned out to be 48 nM. For the same molecule, under setting [2], the “S1P3 (% inh)” value amounted to 100%.
In the case of `CC[C@H]1COC(c2ccc3c(C(=O)NCc4cc(F)cc(F)c4)c(C(C)C)n(Cc4ccccn4)c3c2)=N1` [Compound 85, (S)—N-(3,5-Difluorobenzyl)-6-(4-ethyl-4,5-dihydrooxazol-2-yl)-2-isopropyl-1-(pyridin-2-ylmethyl)-1H-indole-3-carboxamide], the IC50 under setting [1] stood at 18 nM. Further, under setting [2], the “S1P3 (% inh)” value was determined as 100%.
Regarding `CC(C)c1c(C(=O)NCc2cc(F)cc(F)c2)c2ccc(NC3CCCC3)cc2n1Cc1ccccc1` [Compound 191, 1-Benzyl-6-(cyclopentylamino)-N-(3,5-difluorobenzyl)-2-isopropyl-1H-indole-3-carboxamide], under setting [1], the IC50 is 38 nM. Besides, the “S1P3 (% inh)” value under setting [2] is 99%.
For `CC(C)c1c(C(=O)NCc2ccc(F)c(F)c2)c2ccc(O)cc2n1Cc1ccccc1` [Compound 8, 1-Benzyl-N-(3,4-difluorobenzyl)-6-hydroxy-2-isopropyl-1H-indole-3-carboxamide], in that order: 3100 nM and 71%.
For `CCNCc1ccc2c(C(=O)NCc3ccc(F)c(F)c3)c(C(C)C)n(Cc3ccccc3)c2c1`, in that order: 2500 nM and 87%.
For `CC(C)c1c(C(=O)NCc2ccc(F)c(F)c2)c2ccc(OC3CCOCC3)cc2n1Cc1ccccn1` [Compound 143, N-(3,4-Difluorobenzyl)-2-isopropyl-1-(pyridin-2-ylmethyl)-6-(tetrahydro-2H-pyran-4-yloxy)-1H-indole-3-carboxamide], in that order: 36 nM and 99%.
`CC(C)COc1ccc2c(C(=O)NCc3cccnc3)c(C(C)C)n(Cc3ccccn3)c2c1`: the IC50 was found to be 124 nM and the “S1P3 (% inh)” value is listed as 124 nM (99) %.
In the case of `CC(C)c1c(C(=O)NCc2ccc(F)c(F)c2)c2ccc(OC3CCOC3=O)cc2n1Cc1ccccc1` (centres unmarked) [Compound 20, 1-Benzyl-N-(3,4-difluorobenzyl)-2-isopropyl-6-(2-oxotetrahydrofuran-3-yloxy)-1H-indole-3-carboxamide], under setting [1], the IC50 worked out at 81 nM. Besides, the “S1P3 (% inh)” value under setting [2] is recorded as 100%.
For the molecule `CC(C)c1c(C(=O)NCc2ccc(F)c(F)c2)c2ccc(NC3CCC3)cc2n1Cc1ccccn1` [Compound 197, 6-(Cyclobutylamino)-N-(3,4-difluorobenzyl)-2-isopropyl-1-(pyridin-2-ylmethyl)-1H-indole-3-carboxamide], the IC50 under setting [1] stood at 67 nM. In addition, under setting [2], the “S1P3 (% inh)” value is given as 100%.
For `CC(C)c1c(C(=O)NCc2ccc(F)c(F)c2)c2ccc(C3=N[C@@H](C)CO3)cc2n1Cc1ccccc1` [Compound 76, (S)-1-Benzyl-N-(3,4-difluorobenzyl)-2-isopropyl-6-(4-methyl-4,5-dihydrooxazol-2-yl)-1H-indole-3-carboxamide], in that order: 33 nM and 99%.
